Activity calls are given as the source filed them. The calls are words filed in the database; no cut-off is given here.
How the values were obtained:
[1] = Plasma concentration in C57 mouse at 10 mg/kg, ip after 30 mins; assay type: ADME, organism-based; parameters: dose 10 mg/kg, route intraperitoneal
[2] = Metabolic stability in human liver microsomes assessed as compound remaining after 60 mins; assay type: ADME, Microsome; conditions: read-out: Stability
[3] = Cmax in C57 mouse at 10 mg/kg, ip; assay type: ADME, organism-based; parameters: dose 10 mg/kg, route intraperitoneal; conditions: in vivo
Homo sapiens [4] = species: Homo sapiens; assay: Selectivity ratio of IC50 for cloned human recombinant PDE4D to IC50 for cloned human recombinant PDE7B
[5] = Tmax in C57 mouse at 10 mg/kg, ip; assay type: ADME, organism-based; parameters: dose 10 mg/kg, route intraperitoneal; conditions: in vivo
[6] = molecular target: T1, 3',5'-cyclic-AMP phosphodiesterase 4D (Homo sapiens, UniProt Q08499); assay: Inhibition of cloned human recombinant PDE4D assessed as [3H]cAMP hydrolysis at 10 uM by radiometric assay
T1 sequence (Q08499 whole entry): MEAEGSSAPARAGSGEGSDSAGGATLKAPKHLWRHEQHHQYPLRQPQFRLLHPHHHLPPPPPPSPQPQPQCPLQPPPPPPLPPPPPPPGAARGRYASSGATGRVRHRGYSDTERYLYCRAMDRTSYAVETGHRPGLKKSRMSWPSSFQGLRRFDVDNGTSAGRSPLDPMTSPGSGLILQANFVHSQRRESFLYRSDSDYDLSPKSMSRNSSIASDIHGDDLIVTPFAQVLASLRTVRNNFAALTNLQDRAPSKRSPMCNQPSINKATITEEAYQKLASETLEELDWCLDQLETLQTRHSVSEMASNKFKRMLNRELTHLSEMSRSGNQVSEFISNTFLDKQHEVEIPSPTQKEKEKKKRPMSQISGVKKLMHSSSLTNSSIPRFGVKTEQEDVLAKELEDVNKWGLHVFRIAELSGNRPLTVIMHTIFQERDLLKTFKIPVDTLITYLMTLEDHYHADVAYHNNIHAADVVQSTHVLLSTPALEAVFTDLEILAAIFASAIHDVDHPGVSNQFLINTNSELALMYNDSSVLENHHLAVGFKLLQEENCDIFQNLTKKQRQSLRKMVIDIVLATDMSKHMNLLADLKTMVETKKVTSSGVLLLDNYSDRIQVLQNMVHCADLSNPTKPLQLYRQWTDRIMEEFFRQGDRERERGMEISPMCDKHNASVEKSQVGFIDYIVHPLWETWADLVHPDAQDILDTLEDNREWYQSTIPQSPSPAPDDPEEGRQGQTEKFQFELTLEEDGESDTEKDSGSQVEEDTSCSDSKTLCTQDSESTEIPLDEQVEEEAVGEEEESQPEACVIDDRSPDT

[7] = Ratio of drug level in brain to plasma in C57 mouse at 10 mg/kg, ip after 30 mins; assay type: ADME, organism-based; parameters: dose 10 mg/kg, route intraperitoneal; conditions: read-out: BPR
[8] = Metabolic stability in mouse liver microsomes assessed as compound remaining after 60 mins; assay type: ADME, Microsome; conditions: read-out: Stability
[9] = molecular target: T2, High affinity 3',5'-cyclic-AMP phosphodiesterase 7A (Homo sapiens, UniProt Q13946); assay: Inhibition of cloned human recombinant PDE7A assessed as [3H]cAMP hydrolysis by radiometric assay
T2 sequence (Q13946 whole entry): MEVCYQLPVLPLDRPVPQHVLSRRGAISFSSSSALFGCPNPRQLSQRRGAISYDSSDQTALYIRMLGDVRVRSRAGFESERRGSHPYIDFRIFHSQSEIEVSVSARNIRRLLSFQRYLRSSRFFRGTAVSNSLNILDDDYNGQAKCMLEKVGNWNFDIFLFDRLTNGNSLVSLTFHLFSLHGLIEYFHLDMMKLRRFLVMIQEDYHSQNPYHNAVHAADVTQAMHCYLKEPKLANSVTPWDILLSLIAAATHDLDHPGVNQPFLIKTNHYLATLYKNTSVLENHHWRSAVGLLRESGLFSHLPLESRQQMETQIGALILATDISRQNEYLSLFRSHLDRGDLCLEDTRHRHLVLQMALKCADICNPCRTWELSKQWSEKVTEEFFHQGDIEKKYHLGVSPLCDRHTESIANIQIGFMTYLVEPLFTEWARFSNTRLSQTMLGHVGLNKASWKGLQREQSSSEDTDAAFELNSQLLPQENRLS

[10] = molecular target: High affinity cAMP-specific and IBMX-insensitive 3',5'-cyclic phosphodiesterase 8A (Homo sapiens) (UniProt O60658); assay: Inhibition of cloned human recombinant PDE8A1 assessed as [3H]cAMP hydrolysis at 10 uM by radiometric assay
[11] = AUC in C57 mouse at 10 mg/kg, ip; assay type: ADME, organism-based; parameters: dose 10 mg/kg, route intraperitoneal; conditions: plasma
[12] = molecular target: cAMP and cAMP-inhibited cGMP 3',5'-cyclic phosphodiesterase 10A (Homo sapiens) (UniProt Q9Y233); assay: Inhibition of cloned human recombinant PDE10A assessed as [3H]cAMP hydrolysis at 10 uM by radiometric assay
Chain of cAMP and cAMP-inhibited cGMP 3',5'-cyclic phosphodiesterase 10A (Homo sapiens) (Q9Y233 whole entry): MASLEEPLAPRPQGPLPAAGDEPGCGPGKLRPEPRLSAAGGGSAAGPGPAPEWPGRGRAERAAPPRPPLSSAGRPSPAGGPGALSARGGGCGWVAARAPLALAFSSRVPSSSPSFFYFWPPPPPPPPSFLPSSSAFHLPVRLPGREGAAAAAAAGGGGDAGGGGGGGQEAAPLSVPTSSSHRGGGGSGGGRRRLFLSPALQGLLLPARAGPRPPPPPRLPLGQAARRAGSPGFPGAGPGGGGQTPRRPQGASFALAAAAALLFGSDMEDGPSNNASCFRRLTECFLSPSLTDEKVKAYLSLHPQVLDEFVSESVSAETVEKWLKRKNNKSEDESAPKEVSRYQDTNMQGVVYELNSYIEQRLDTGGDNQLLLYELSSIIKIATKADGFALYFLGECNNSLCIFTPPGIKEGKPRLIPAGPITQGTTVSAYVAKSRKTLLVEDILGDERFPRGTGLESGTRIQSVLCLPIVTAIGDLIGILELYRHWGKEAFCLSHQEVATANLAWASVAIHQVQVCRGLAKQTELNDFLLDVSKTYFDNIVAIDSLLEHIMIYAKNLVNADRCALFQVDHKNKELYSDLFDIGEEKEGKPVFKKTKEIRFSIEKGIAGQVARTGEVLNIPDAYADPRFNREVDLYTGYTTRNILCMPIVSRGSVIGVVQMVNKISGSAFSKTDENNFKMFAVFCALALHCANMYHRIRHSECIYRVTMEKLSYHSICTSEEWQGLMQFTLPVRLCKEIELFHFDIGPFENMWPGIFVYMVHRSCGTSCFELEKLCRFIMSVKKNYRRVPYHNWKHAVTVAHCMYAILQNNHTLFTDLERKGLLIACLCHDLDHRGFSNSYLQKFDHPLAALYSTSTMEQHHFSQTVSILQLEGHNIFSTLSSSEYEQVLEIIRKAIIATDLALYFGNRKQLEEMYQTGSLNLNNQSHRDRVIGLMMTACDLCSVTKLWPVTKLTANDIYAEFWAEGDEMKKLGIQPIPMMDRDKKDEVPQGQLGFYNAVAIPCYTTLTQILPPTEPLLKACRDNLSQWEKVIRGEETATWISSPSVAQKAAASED

[13] = molecular target: T1, 3',5'-cyclic-AMP phosphodiesterase 4D; assay: Inhibition of cloned human recombinant PDE4D assessed as [3H]cAMP hydrolysis by radiometric assay
[14] = molecular target: cGMP-specific 3',5'-cyclic phosphodiesterase (Homo sapiens) (UniProt O76074); assay: Inhibition of cloned human recombinant PDE5A assessed as [3H]cAMP hydrolysis at 10 uM by radiometric assay
[15] = Drug uptake in C57 mouse brain at 10 mg/kg, ip after 30 mins; assay type: ADME, organism-based; parameters: dose 10 mg/kg, route intraperitoneal; conditions: read-out: Drug uptake
[16] = molecular target: Dual specificity calcium/calmodulin-dependent 3',5'-cyclic nucleotide phosphodiesterase 1A (Homo sapiens) (UniProt P54750); assay: Inhibition of cloned human recombinant PDE1A assessed as [3H]cAMP hydrolysis at 10 uM by radiometric assay
Chain of Dual specificity calcium/calmodulin-dependent 3',5'-cyclic nucleotide phosphodiesterase 1A (Homo sapiens) (P54750 whole entry): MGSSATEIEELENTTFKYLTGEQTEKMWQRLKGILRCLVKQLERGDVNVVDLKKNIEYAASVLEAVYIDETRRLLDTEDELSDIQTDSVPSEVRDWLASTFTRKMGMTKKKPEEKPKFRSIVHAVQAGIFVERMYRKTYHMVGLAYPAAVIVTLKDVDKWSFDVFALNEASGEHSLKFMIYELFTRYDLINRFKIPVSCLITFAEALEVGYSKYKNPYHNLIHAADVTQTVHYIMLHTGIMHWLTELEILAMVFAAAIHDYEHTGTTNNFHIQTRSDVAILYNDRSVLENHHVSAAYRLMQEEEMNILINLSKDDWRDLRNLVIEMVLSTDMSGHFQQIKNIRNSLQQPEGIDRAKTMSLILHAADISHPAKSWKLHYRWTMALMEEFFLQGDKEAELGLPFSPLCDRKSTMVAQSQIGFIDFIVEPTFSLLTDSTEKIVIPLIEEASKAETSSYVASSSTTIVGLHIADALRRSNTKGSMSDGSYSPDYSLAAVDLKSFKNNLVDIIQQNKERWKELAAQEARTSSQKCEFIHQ

[17] = molecular target: cGMP-dependent 3',5'-cyclic phosphodiesterase (Homo sapiens) (UniProt O00408); assay: Inhibition of cloned human recombinant PDE2A assessed as [3H]cAMP hydrolysis at 10 uM by radiometric assay
[18] = molecular target: cGMP-inhibited 3',5'-cyclic phosphodiesterase 3A (Homo sapiens) (UniProt Q14432); assay: Inhibition of cloned human recombinant PDE3A assessed as [3H]cAMP hydrolysis at 10 uM by radiometric assay
[19] = Metabolic stability in rat liver microsomes assessed as compound remaining after 60 mins; assay type: ADME, Microsome; conditions: read-out: Stability
Homo sapiens [20] = species: Homo sapiens; assay: Selectivity ratio of IC50 for cloned human recombinant PDE4D to IC50 for cloned human recombinant PDE7A
[21] = molecular target: High affinity cGMP-specific 3',5'-cyclic phosphodiesterase 9A (Homo sapiens) (UniProt O76083); assay: Inhibition of cloned human recombinant PDE9A2 assessed as [3H]cAMP hydrolysis at 10 uM by radiometric assay
Chain of High affinity cGMP-specific 3',5'-cyclic phosphodiesterase 9A (Homo sapiens) (O76083 whole entry): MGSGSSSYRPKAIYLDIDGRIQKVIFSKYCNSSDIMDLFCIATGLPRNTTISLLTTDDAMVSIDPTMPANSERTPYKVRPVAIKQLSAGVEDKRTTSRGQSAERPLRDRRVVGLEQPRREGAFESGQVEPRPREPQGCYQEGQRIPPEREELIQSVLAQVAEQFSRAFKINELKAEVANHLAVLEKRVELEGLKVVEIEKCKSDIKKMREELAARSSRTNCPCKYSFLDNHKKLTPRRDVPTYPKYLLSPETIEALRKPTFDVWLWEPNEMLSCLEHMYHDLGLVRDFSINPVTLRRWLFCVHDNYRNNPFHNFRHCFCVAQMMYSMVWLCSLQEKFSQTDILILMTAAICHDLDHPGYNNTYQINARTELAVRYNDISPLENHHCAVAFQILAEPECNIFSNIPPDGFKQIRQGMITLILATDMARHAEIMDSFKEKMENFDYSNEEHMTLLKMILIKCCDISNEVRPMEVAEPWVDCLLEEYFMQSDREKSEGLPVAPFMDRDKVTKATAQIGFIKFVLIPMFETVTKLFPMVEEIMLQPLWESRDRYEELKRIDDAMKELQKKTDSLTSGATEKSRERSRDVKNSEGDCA

[22] = molecular target: 3',5'-cyclic-AMP phosphodiesterase 7B (Homo sapiens, UniProt Q9NP56); assay: Inhibition of cloned human recombinant PDE7B assessed as [3H]cAMP hydrolysis by radiometric assay
Chain of 3',5'-cyclic-AMP phosphodiesterase 7B (Q9NP56 whole entry): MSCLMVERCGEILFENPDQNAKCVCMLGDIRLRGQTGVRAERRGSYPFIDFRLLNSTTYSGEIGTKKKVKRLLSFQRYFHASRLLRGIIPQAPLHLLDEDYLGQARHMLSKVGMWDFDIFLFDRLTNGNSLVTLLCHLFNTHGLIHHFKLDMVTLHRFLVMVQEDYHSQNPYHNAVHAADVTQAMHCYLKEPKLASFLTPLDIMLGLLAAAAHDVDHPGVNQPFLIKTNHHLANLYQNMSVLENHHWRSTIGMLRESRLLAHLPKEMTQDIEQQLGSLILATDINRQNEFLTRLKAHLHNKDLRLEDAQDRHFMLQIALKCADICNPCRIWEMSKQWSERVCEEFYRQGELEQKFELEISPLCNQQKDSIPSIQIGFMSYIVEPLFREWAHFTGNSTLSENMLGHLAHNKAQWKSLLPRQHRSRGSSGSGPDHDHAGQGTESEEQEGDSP

[23] = molecular target: Dual 3',5'-cyclic-AMP and -GMP phosphodiesterase 11A (Homo sapiens) (UniProt Q9HCR9); assay: Inhibition of cloned human recombinant PDE11A assessed as [3H]cAMP hydrolysis at 10 uM by radiometric assay
Chain of Dual 3',5'-cyclic-AMP and -GMP phosphodiesterase 11A (Homo sapiens) (Q9HCR9 whole entry, looked up): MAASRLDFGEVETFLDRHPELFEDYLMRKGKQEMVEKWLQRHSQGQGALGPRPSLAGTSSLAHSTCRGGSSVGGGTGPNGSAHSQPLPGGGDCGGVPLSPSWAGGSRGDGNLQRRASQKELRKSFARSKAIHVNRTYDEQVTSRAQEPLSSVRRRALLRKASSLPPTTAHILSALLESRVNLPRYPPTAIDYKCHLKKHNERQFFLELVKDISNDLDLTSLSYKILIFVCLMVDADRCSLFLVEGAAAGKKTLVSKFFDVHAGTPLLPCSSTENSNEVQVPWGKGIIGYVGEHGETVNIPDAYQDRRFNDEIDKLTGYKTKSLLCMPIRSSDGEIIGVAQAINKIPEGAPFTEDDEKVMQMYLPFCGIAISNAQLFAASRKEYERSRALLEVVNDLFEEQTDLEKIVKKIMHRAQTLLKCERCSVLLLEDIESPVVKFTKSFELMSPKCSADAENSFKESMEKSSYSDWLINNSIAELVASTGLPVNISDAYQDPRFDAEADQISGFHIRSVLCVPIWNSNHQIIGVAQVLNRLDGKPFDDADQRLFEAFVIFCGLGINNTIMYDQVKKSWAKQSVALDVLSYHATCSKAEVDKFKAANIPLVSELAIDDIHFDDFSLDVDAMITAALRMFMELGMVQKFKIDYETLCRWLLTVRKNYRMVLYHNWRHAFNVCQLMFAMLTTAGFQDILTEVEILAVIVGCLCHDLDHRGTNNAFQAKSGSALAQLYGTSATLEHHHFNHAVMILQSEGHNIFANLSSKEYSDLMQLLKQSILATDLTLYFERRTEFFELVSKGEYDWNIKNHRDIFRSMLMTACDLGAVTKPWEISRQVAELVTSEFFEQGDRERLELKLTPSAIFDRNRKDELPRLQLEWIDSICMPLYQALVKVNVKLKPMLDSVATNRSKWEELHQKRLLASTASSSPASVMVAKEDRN

[24] = molecular target: T2, High affinity 3',5'-cyclic-AMP phosphodiesterase 7A; assay: Inhibition of cloned human recombinant PDE7A assessed as [3H]cAMP hydrolysis at 1 uM by radiometric assay
Mus musculus [25] = assay: Neurotoxicity in C57BL/6 mouse assessed as potentiation of haloperidol-induced catalepsy at 1 to 10 mg/kg, ip administered 15 mins prior to haloperidol challenge measured at 0.5 to 1 hr post haloperidol challenge; assay type: toxicity, organism-based; parameters: route intraperitoneal; conditions: in vivo
[26] = molecular target: T3, High affinity 3',5'-cyclic-AMP phosphodiesterase 7A (Mus musculus, UniProt P70453); assay: Inhibition of mouse PDE7A assessed as [3H]cAMP hydrolysis after 5 to 15 mins by scintillation counter
T3 sequence (P70453 whole entry): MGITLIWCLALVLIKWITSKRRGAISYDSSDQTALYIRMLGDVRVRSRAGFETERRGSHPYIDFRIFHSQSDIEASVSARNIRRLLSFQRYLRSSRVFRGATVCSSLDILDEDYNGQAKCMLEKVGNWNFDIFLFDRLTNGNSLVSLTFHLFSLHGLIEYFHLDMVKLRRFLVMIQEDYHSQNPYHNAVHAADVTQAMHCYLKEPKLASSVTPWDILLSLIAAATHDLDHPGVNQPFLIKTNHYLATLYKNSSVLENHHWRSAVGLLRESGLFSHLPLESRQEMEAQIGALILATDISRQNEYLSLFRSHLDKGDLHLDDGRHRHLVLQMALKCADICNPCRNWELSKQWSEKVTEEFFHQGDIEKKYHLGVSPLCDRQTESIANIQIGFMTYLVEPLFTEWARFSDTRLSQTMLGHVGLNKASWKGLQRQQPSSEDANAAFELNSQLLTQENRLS

[27] = Cmax in C57 mouse at 30 mg/kg, ip; assay type: ADME, organism-based; parameters: dose 30 mg/kg, route intraperitoneal; conditions: in vivo
[28] = Ratio of drug level in brain to plasma in C57 mouse at 30 mg/kg, ip after 30 mins; assay type: ADME, organism-based; parameters: dose 30 mg/kg, route intraperitoneal; conditions: read-out: BPR
[29] = Plasma concentration in C57 mouse at 100 mg/kg, ip after 30 mins; assay type: ADME, organism-based; parameters: dose 100 mg/kg, route intraperitoneal
Brain [30] = assay: Free drug level in C57 mouse brain homogenate at 100 mg/kg, ip; assay type: ADME, organism-based; parameters: dose 100 mg/kg, route intraperitoneal; conditions: in vivo
Brain [31] = assay: Free drug level in C57 mouse brain homogenate at 1 uM by high throughput dialysis method; assay type: ADME, tissue-based; conditions: in vivo
Brain [32] = assay: Free drug level in C57 mouse brain homogenate at 30 mg/kg, ip; assay type: ADME, organism-based; parameters: dose 30 mg/kg, route intraperitoneal; conditions: in vivo
[33] = Drug uptake in C57 mouse brain at 100 mg/kg, ip after 30 mins; assay type: ADME, organism-based; parameters: dose 100 mg/kg, route intraperitoneal; conditions: read-out: Drug uptake
[34] = Cmax in C57 mouse at 100 mg/kg, ip; assay type: ADME, organism-based; parameters: dose 100 mg/kg, route intraperitoneal; conditions: in vivo
[35] = Plasma concentration in C57 mouse at 30 mg/kg, ip after 30 mins; assay type: ADME, organism-based; parameters: dose 30 mg/kg, route intraperitoneal
Mus musculus [36] = assay: Neurotoxicity in C57BL/6 mouse assessed as haloperidol-induced deffect in motor coordination at 3 mg/kg, ip administered 15 mins prior to haloperidol challenge measured at 0.5 to 1 hr post haloperidol challenge; assay type: toxicity, organism-based; parameters: dose 3 mg/kg, route intraperitoneal; conditions: in vivo
[37] = Drug uptake in C57 mouse brain at 30 mg/kg, ip after 30 mins; assay type: ADME, organism-based; parameters: dose 30 mg/kg, route intraperitoneal; conditions: read-out: Drug uptake
Mus musculus [38] = assay: Neurotoxicity in C57BL/6 mouse assessed as induction of catalepsy at 30 mg/kg, ip measured at 0.5 to 1 hr; assay type: toxicity, organism-based; parameters: dose 30 mg/kg, route intraperitoneal; conditions: in vivo
Brain [39] = assay: Free drug level in C57 mouse brain homogenate at 10 mg/kg, ip; assay type: ADME, organism-based; parameters: dose 10 mg/kg, route intraperitoneal; conditions: in vivo
[40] = AUC in C57 mouse at 30 mg/kg, ip; assay type: ADME, organism-based; parameters: dose 30 mg/kg, route intraperitoneal; conditions: plasma
[41] = Ratio of drug level in brain to plasma in C57 mouse at 100 mg/kg, ip after 30 mins; assay type: ADME, organism-based; parameters: dose 100 mg/kg, route intraperitoneal; conditions: read-out: BPR
Mus musculus [42] = assay: Neurotoxicity in C57BL/6 mouse assessed as induction of catalepsy at 1 to 10 mg/kg, ip measured at 0.5 to 1 hr; assay type: toxicity, organism-based; parameters: route intraperitoneal; conditions: in vivo
[43] = AUC in C57 mouse at 100 mg/kg, ip; assay type: ADME, organism-based; parameters: dose 100 mg/kg, route intraperitoneal; conditions: plasma
Mus musculus [44] = assay: Antiparkinsonian activity in C57BL/6 mouse assessed as decrease in MPTP-induced rearing behavior impairment at 30 mg/kg, ip administered 15 mins on day 7 post MPTP challenge; assay type: functional, organism-based; parameters: dose 30 mg/kg
[45] = Tmax in C57 mouse at 100 mg/kg, ip; assay type: ADME, organism-based; parameters: dose 100 mg/kg, route intraperitoneal; conditions: in vivo
[46] = Tmax in C57 mouse at 30 mg/kg, ip; assay type: ADME, organism-based; parameters: dose 30 mg/kg, route intraperitoneal; conditions: in vivo

COc1cc(N2CCCNCC2)ccc1-c1nc2c(C)nn(C3CCCCC3)c(=O)c2[nH]1
concentration at 0.5 h [1]: 446 ng/mL | remaining at 1 h [2]: 90% | Cmax [3]: 570 ng/mL | Ratio IC50 (Homo sapiens [4]): > 150 | Tmax [5]: 15 min | inhibition [6]: 90% | Kp at 0.5 h [7]: 0.09 | remaining at 1 h [8]: 37% | IC50 [9]: 12 nM | inhibition [10]: 19% | AUC [11]: 1370 ng·h/mL | inhibition [12]: 2% | IC50 [13]: 2900 nM | inhibition [14]: 3% | concentration at 0.5 h [15]: 39 ng/g | inhibition [16]: 33% | inhibition [17]: 28% | inhibition [18]: 4% | remaining at 1 h [19]: 40% | Ratio IC50 (Homo sapiens [20]): > 200 | inhibition [21]: 12% | IC50 [22]: 19 nM | inhibition [23]: 24%

COc1cc(N2CCC(N)CC2)ccc1-c1nc2c(C)nn(C3CCCC3)c(=O)c2[nH]1
inhibition [24]: 89%

COc1cc(N)ccc1-c1nc2c(C)nn(C3CCCCC3)c(=O)c2[nH]1
Activity (Mus musculus [25]): Toxic | concentration at 0.5 h [1]: 699 ng/mL | remaining at 1 h [2]: 43% | IC50 [26]: 63 nM | Cmax [27]: 6350 ng/mL | Kp at 0.5 h [28]: 3.43 | concentration at 0.5 h [29]: 44200 ng/mL | Drug uptake(free) (Brain [30]): 763 nM | Cmax [3]: 1480 ng/mL | Ratio IC50 (Homo sapiens [4]): > 150 | Tmax [5]: 15 min | Drug uptake(free) (Brain [31]): 0.2% | inhibition [6]: 86% | Kp at 0.5 h [7]: 1.69 | Drug uptake(free) (Brain [32]): 91 nM | concentration at 0.5 h [33]: 135000 ng/g | Cmax [34]: 44200 ng/mL | remaining at 1 h [8]: 4% | IC50 [9]: 31 nM | inhibition [10]: 0% | AUC [11]: 792 ng·h/mL | concentration at 0.5 h [35]: 4680 ng/mL | inhibition [12]: 23% | Activity (Mus musculus [36]): Toxic | IC50 [13]: 6550 nM | inhibition [14]: 3% | concentration at 0.5 h [15]: 1140 ng/g | inhibition [16]: 37% | concentration at 0.5 h [37]: 16000 ng/g | Activity (Mus musculus [38]): Toxic | Drug uptake(free) (Brain [39]): 6 nM | AUC [40]: 5020 ng·h/mL | Kp at 0.5 h [41]: 3.05 | inhibition [17]: 29% | Activity (Mus musculus [42]): Non-toxic | inhibition [18]: 6% | AUC [43]: 168000 ng·h/mL | remaining at 1 h [19]: 68% | Ratio IC50 (Homo sapiens [20]): > 200 | inhibition [21]: 9% | Activity (Mus musculus [44]): inactive | Tmax [45]: 30 min | IC50 [22]: 43 nM | inhibition [23]: 10% | Tmax [46]: 15 min

COc1cc(C2CC2C(N)=O)ccc1-c1nc2c(C)nn(C3CCCCC3)c(=O)c2[nH]1 (stereo not drawn)
IC50 [9]: 3 nM

CCCCC(CC)Cn1nc(C)c2nc(-c3ccc(N4CCC(N)CC4)cc3OC)[nH]c2c1=O (stereo not drawn)
inhibition [24]: 6%

COc1cc(N2CCCC(O)CC2)ccc1-c1nc2c(C)nn(C3CCCCC3)c(=O)c2[nH]1 (stereo not drawn)
IC50 [9]: 33 nM

COc1cc(N2CC[C@@H](N)C2)ccc1-c1nc2c(C)nn(C3CCCCC3)c(=O)c2[nH]1
IC50 [9]: 77 nM
